System: Lol p V reactive T Cells
Test: T cell proliferation (tritiated thymidine) of Lol p V-primed T cell lines from grass-allergic patients
Format: cell-based, human
Text: As discussed in Example 2, human T cell stimulating activity can be tested by culturing T cells obtained from an individual sensitive to Lol p V allergen, (i.e., an individual who has an IgE mediated immune response to Lol p V allergen) with a peptide derived from the allergen and determining whether proliferation of T cells occurs in response to the peptide as measured, e.g., by cellular uptake of tritiated thymidine. Stimulation indices for responses by T cells to peptides can be calculated as the maximum CPM in response to a peptide divided by the control CPM. A stimulation index (S.I.) equal to or greater than two times the background level is considered “positive”. Positive results are used to calculate the mean stimulation index for each peptide for the group of patients tested. In FIGS. 4 and 5 the mean T cell stimulation index is indicated above the bar. Preferred peptides of this invention comprise at least one T cell epitope and have a mean T cell stimulation index of greater than or equal to 2.0. […]
In addition, preferred peptides have a positivity index (P.I.) of at least about 60, more preferably about 100, more preferably at least about 200 and most preferably at least about 300. The positivity index for a peptide is determined by multiplying the mean T cell stimulation index by the percent of individuals, in a population of individuals sensitive to ryegrass pollen (e.g., preferably a population of at least 15 individuals, more preferably a population of at least 30 individuals or more), who have a T cell stimulation index to such peptide of at least 2.0. […]
In FIG. 5, the bar represents the cumulative rank of the peptide response in the group of patients tested as described in Example 2. To determine the cumulative rank, the 5 peptides with the highest S.I. in each individual were determined and assigned a numerical rank in descending order, with 5 representing the strongest response. […]
This amount of priming antigen was determined to be optimal for the activation of T cells from most grass-allergic patients. […]

Substance: LPIX-5: synthetic overlapping peptide derived from Lol p V, sequence in FIG. 2 (GFKAAVAAAANAPPADKFKI; Lolium perenne)
- percent of positive responses (patients with S.I. of at least 2) (group of 19 patients tested, FIG. 4): 26.3%

Substance: LPIX-20: synthetic overlapping peptide derived from Lol p V, sequence in FIG. 2 (AYETYKFIPSLEAAVKQAYA; Lolium perenne)
- ranked sum (cumulative rank of the peptide response) (19 patients, 5 peptides with highest S.I. per individual ranked, ranks summed, FIG. 5): highest ranked sum

Substance: rFel d I (Chain I): recombinant Fel d I chain I, control antigen in T cell assay [reference compound]
- T cell proliferative response of one patient (one allergic patient, results not shown): not

Reference: patent US7112333B1, “T cell epitopes of ryegrass pollen allergen” (Heska Corporation, priority 1994, dated 2006)
